Patent publication US11098055B2, “Ester ACC inhibitors and uses thereof” (Gilead Apollo, LLC, priority 2015, dated 2021)
In brackets after ≈: the same amount, converted by molar mass. Read-outs that look alike come from different tables or passages of the source.

Tests used:
fACC2 = fACC2 (UniProt Q00955); assay: In vitro ACC2 inhibition assay (ADP-Glo), fungal ACC2; type: biochemical
How it was run: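 ADP-Glo luminescent ADP detection with 5 nM ACC2, 20 μM ATP, 20 μM acetyl-CoA, 12 mM NaHCO3, 2 mM DTT, 5% DMSO; compound (30 μM-0.00051 μM, 11 points) preincubated 15 min, reaction 60 min at room temperature. Percent inhibition against DMSO and positive controls; IC50 by four-parameter nonlinear fit.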

Diplodia maydis (Dm) = assay: Growth inhibition assay of fungal pathogens; type: cell-based; settings: Stenocarpella maydis, 48 h, read-out: Concentration at 90% Inhibition Dm
How it was run: (§1)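 Percent growth inhibition is scored at 48 h, by OD600 (blank-subtracted) and visual rating against the 2% DMSO control. Compounds were tested at final 50, 10, 2 ppm or 2, 0.4, 0.08 ppm on pathogen spores diluted in 17% V8 medium; mycelial plugs in ¼ PDB were used for Rhizoctonia.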

Botrtyis cinerea (Bc) = assay: Growth inhibition assay of fungal pathogens; type: cell-based; settings: 48 h, read-out: Concentration at 90% Inhibition Bc
How it was run: as §1

[1] = tested on: Fusarium virguliforme (Fv); assay: Growth inhibition assay of fungal pathogens; type: cell-based; settings: 48 h, read-out: Concentration at 90% Inhibition Fv
How it was run: as §1

[2] = tested on: Phytophthora capsici (Pc); assay: Growth inhibition assay of fungal pathogens; type: cell-based; settings: 48 h, read-out: Concentration at 90% Inhibition Pc
How it was run: as §1

Septoria tritici (St) = assay: Growth inhibition assay of fungal pathogens; type: cell-based; settings: Zymoseptoria tritici, 48 h, read-out: Concentration at 90% Inhibition St
How it was run: as §1

Rhizoctonia solani (Rs) = assay: Growth inhibition assay of fungal pathogens; type: cell-based; settings: 48 h, read-out: Concentration at 90% Inhibition Rs
How it was run: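 Spores, or mycelial plugs for Rhizoctonia, in 17% V8 medium (¼ PDB for plugs) were exposed to compound at final 50, 10 and 2 ppm or 2, 0.4 and 0.08 ppm, with 2% DMSO. Growth was read by OD600 with blank subtraction plus visual rating; percent inhibition at 48 h is relative to 2% DMSO control.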

[3] = tested on: Fusarium moniliforme (Fm); assay: Growth inhibition assay of fungal pathogens; type: cell-based; settings: Fusarium verticillioides, 48 h, read-out: Concentration at 90% Inhibition Fm
How it was run: as §1

[4] = tested on: Collectotrichum graminicola (Cg); assay: Growth inhibition assay of fungal pathogens; type: cell-based; settings: 48 h, read-out: Concentration at 90% Inhibition Cg
How it was run: as §1

fACC2, sequence (Q00955 whole entry): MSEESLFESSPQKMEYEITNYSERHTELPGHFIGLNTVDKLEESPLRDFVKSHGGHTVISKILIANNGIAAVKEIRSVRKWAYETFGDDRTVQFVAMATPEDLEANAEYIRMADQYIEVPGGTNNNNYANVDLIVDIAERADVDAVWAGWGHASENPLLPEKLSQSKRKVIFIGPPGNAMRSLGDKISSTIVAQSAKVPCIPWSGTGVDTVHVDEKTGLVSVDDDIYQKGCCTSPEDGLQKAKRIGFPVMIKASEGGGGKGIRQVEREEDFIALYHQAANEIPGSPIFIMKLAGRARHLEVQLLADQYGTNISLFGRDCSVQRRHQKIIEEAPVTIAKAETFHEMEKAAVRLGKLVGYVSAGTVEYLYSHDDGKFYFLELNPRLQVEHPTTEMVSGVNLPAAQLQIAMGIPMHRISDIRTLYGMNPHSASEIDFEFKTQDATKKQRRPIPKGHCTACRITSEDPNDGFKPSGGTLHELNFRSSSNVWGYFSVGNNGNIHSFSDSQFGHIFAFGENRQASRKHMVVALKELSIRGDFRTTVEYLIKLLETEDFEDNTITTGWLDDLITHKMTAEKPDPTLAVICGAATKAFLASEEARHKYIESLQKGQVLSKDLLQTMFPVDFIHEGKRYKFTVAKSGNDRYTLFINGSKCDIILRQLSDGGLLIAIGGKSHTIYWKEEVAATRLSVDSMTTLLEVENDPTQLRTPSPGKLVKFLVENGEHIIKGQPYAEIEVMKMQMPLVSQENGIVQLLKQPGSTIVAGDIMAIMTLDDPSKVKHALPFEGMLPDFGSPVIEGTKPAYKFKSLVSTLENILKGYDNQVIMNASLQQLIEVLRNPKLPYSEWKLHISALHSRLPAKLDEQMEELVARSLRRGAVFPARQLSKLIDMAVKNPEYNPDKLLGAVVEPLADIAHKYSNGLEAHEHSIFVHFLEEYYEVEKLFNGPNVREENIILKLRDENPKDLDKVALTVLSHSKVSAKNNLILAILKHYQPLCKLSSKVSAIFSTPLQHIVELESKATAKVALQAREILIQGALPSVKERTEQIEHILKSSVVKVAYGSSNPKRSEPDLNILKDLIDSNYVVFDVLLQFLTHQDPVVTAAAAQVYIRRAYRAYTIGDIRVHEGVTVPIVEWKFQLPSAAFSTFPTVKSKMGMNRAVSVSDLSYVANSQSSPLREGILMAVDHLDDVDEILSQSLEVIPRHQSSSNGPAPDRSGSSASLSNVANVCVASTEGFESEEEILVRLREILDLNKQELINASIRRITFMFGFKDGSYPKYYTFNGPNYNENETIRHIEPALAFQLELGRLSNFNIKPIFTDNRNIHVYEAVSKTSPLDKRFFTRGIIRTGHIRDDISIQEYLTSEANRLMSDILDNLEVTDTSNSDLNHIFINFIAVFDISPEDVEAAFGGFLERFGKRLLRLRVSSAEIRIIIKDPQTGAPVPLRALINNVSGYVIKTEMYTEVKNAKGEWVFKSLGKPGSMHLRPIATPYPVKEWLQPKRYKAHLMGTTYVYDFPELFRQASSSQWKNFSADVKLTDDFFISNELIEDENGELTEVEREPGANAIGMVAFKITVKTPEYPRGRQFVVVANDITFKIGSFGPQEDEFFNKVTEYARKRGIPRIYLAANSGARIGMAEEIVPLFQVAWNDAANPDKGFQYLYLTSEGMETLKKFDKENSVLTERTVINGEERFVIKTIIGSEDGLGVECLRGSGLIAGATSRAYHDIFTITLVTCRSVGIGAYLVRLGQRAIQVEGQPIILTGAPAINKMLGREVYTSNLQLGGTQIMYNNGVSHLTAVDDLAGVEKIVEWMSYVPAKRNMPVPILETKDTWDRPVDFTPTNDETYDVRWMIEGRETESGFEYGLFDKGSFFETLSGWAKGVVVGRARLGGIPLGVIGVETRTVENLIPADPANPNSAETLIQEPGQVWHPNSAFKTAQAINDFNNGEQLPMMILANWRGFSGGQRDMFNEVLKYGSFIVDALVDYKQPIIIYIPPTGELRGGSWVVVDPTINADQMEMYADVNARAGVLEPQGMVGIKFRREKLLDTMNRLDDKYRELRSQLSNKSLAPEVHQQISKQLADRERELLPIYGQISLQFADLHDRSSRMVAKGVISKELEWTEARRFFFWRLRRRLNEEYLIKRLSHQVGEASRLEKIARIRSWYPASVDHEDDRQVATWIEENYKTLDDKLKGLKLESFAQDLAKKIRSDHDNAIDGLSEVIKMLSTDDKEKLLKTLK

SMILES | IC50 (fACC2; Table 2a) [nM] | IC50 (fACC2; Table 2b (additional results)) [nM] | IC90 (Diplodia maydis (Dm); Table 4a) [µg/mL] | IC90 (Diplodia maydis (Dm); Table 4b) [µg/mL] | IC90 (Botrtyis cinerea (Bc); Table 4a) [µg/mL] | IC90 (Botrtyis cinerea (Bc); Table 4b) [µg/mL] | IC90 ([1]; Table 4a) [µg/mL] | IC90 ([1]; Table 4b) [µg/mL] | IC90 ([2]; Table 4a) [µg/mL] | IC90 ([2]; Table 4b) [µg/mL] | IC90 (Septoria tritici (St); Table 4a) [µg/mL] | IC90 (Septoria tritici (St); Table 4b) [µg/mL] | IC90 (Rhizoctonia solani (Rs); Table 4a) [µg/mL] | IC90 (Rhizoctonia solani (Rs); Table 4b) [µg/mL] | IC90 ([3]; Table 4a) [µg/mL] | IC90 ([3]; Table 4b) [µg/mL] | IC90 ([4]; Table 4a) [µg/mL] | IC90 ([4]; Table 4b) [µg/mL]
CCOC(=O)c1sc2c(c1C)c(=O)n(C(C)(C)C(N)=O)c(=O)n2C[C@H](OCCO)c1cc(F)ccc1OC [Compound I-17, (R)-ethyl 3-(1-amino-2-methyl-1-oxopropan-2-yl)-1-(2-(5-fluoro-2-methoxyphenyl)-2-(2-hydroxyethoxy)ethyl)-5-methyl-2,4-dioxo-1,2,3,4-tetrahydro-thieno[2,3-d]pyrimidine-6-carboxylate] | 0.6 to 3 | 0.3 to 3 | ≥ 50 | ≥ 50 | ≥ 50 | 10 (≈ 18.1 µM) | ≥ 50 | ≥ 50 | ≥ 50 | ≥ 50 | ≥ 50 | ≥ 50 | 2 (≈ 3.63 µM) | 2 (≈ 3.63 µM) | 2 (≈ 3.63 µM) | 2 (≈ 3.63 µM) | ≥ 50 | ≥ 50
CCOC(=O)c1sc2c(c1C)c(=O)n(C(C)(C)C(=O)N1CCCCC1)c(=O)n2C[C@H](OC(C)C)c1ccccc1OC [Compound I-6, (R)-ethyl 1-(2-isopropoxy-2-(2-methoxyphenyl)ethyl)-5-methyl-3-(2-methyl-1-oxo-1-(piperidin-1-yl)propan-2-yl)-2,4-dioxo-1,2,3,4-tetrahydrothieno[2,3-d]pyrimidine-6-carboxylate] | 0.6 to 3 | 0.3 to 3 | 0.4 (≈ 0.667 µM) | 0.4 (≈ 0.667 µM) | 0.4 (≈ 0.667 µM) | 0.4 (≈ 0.667 µM) | 0.4 (≈ 0.667 µM) | 0.4 (≈ 0.667 µM) | ≥ 50 | ≥ 50 | 10 (≈ 16.7 µM) | 2 (≈ 3.33 µM) | 0.4 (≈ 0.667 µM) | 0.4 (≈ 0.667 µM) | 0.08 (≈ 0.133 µM) | 0.08 (≈ 0.133 µM) | 0.4 (≈ 0.667 µM) | 0.4 (≈ 0.667 µM)
CCNC(=O)C(C)(C)n1c(=O)c2c(C)c(C(=O)OCC)sc2n(C[C@H](OCCC#N)c2ccccc2OC)c1=O [Compound I-32, ethyl (R)-1-(2-(2-cyanoethoxy)-2-(2-methoxyphenyl)ethyl)-3-(1-(ethylamino)-2-methyl-1-oxopropan-2-yl)-5-methyl-2,4-dioxo-1,2,3,4-tetrahydrothieno[2,3-d]pyrimidine-6-carboxylate] |  | 0.3 to 3 |  | 2 (≈ 3.5 µM) |  | 2 (≈ 3.5 µM) |  | 2 (≈ 3.5 µM) |  | ≥ 50 |  | 10 (≈ 17.5 µM) |  | 2 (≈ 3.5 µM) |  | 0.08 (≈ 0.14 µM) |  | 2 (≈ 3.5 µM)
CCOC(=O)c1sc2c(c1C)c(=O)n(C(C)(C)C(=O)NC(C)C)c(=O)n2C[C@H](OCCO)c1cc(F)ccc1OC [Compound I-18, (R)-ethyl 1-(2-(5-fluoro-2-methoxyphenyl)-2-(2-hydroxy-ethoxy)ethyl)-3-(1-(isopropylamino)-2-methyl-1-oxopropan-2-yl)-5-methyl-2,4-dioxo-1,2,3,4-tetrahydrothieno[2,3-d]pyrimidine-6-carboxylate] | 0.6 to 3 |  | 0.4 (≈ 0.674 µM) | 0.4 (≈ 0.674 µM) | 2 (≈ 3.37 µM) | 2 (≈ 3.37 µM) | 2 (≈ 3.37 µM) | 2 (≈ 3.37 µM) | ≥ 50 | ≥ 50 | ≥ 50 | ≥ 50 | 0.08 (≈ 0.135 µM) | 0.08 (≈ 0.135 µM) | 0.08 (≈ 0.135 µM) | 0.08 (≈ 0.135 µM) | 0.4 (≈ 0.674 µM) | 0.4 (≈ 0.674 µM)
CCNC(=O)C(C)(C)n1c(=O)c2c(C)c(C(=O)OCC)sc2n(C[C@H](OCCC#N)c2cc(F)ccc2OC)c1=O [Compound I-29, (R)-ethyl 1-(2-(2-cyanoethoxy)-2-(5-fluoro-2-methoxy-phenyl)ethyl)-3-(1-(ethylamino)-2-methyl-1-oxopropan-2-yl)-5-methyl-2,4-dioxo-1,2,3,4-tetrahydrothieno[2,3-d]pyrimidine-6-carboxylate] |  | 0.3 to 3 |  | 0.4 (≈ 0.68 µM) |  | 2 (≈ 3.4 µM) |  | 2 (≈ 3.4 µM) |  | ≥ 50 |  | 10 (≈ 17 µM) |  | 0.08 (≈ 0.136 µM) |  | 0.08 (≈ 0.136 µM) |  | 0.4 (≈ 0.68 µM)
CCOC(=O)c1sc2c(c1C)c(=O)n(C(C)(C)C(=O)NC(C)C)c(=O)n2C[C@H](OC[C@H](C)C#N)c1cc(F)ccc1OC [Compound I-34, ethyl 1-((R)-2-((R)-2-cyanopropoxy)-2-(5-fluoro-2-methoxyphenyl)ethyl)-3-(1-(isopropylamino)-2-methyl-1-oxopropan-2-yl)-5-methyl-2,4-dioxo-1,2,3,4-tetrahydrothieno[2,3-d]pyrimidine-6-carboxylate] |  | 0.3 to 3 |  | 0.4 (≈ 0.649 µM) |  | 0.4 (≈ 0.649 µM) |  | 0.4 (≈ 0.649 µM) |  | 10 (≈ 16.2 µM) |  | 2 (≈ 3.24 µM) |  | 0.08 (≈ 0.13 µM) |  | 0.08 (≈ 0.13 µM) |  | 0.08 (≈ 0.13 µM)
CCOC(=O)c1sc2c(c1C)c(=O)n([C@H](C)C(=O)N(C)C(C)C)c(=O)n2C[C@H](OCCC#N)c1cc(F)ccc1OC [Compound I-27, ethyl 1-((R)-2-(2-cyanoethoxy)-2-(5-fluoro-2-methoxy-phenyl)ethyl)-3-((R)-1-(isopropyl(methyl)amino)-1-oxopropan-2-yl)-5-methyl-2,4-dioxo-1,2,3,4-tetrahydrothieno[2,3-d]pyrimidine-6-carboxylate] |  | 0.3 to 3 |  | 2 (≈ 3.32 µM) |  | 2 (≈ 3.32 µM) |  | 0.4 (≈ 0.664 µM) |  | ≥ 50 |  | ≥ 50 |  | 2 (≈ 3.32 µM) |  | 0.08 (≈ 0.133 µM) |  | 2 (≈ 3.32 µM)
CCOC(=O)c1sc2c(c1C)c(=O)n(C(C)(C)C(=O)NC(C)C)c(=O)n2C[C@H](OCCC#N)c1ccccc1OC [Compound I-31, ethyl (R)-1-(2-(2-cyanoethoxy)-2-(2-methoxyphenyl)ethyl)-3-(1-(isopropylamino)-2-methyl-1-oxopropan-2-yl)-5-methyl-2,4-dioxo-1,2,3,4-tetrahydrothieno[2,3-d]pyrimidine-6-carboxylate] |  | 0.3 to 3 |  | 0.4 (≈ 0.684 µM) |  | 0.4 (≈ 0.684 µM) |  | 0.4 (≈ 0.684 µM) |  | 2 (≈ 3.42 µM) |  | 10 (≈ 17.1 µM) |  | 2 (≈ 3.42 µM) |  | 0.08 (≈ 0.137 µM) |  | 0.4 (≈ 0.684 µM)
CCOC(=O)c1sc2c(c1C)c(=O)n(C(C)(C)C(=O)N1CCCC1)c(=O)n2C[C@H](OC1CCOCC1)c1ccccc1OC [Compound I-3, ethyl (R)-1-(2-(2-methoxyphenyl)-2-((tetrahydro-2H-pyran-4-yl)oxy)ethyl)-5-methyl-3-(2-methyl-1-oxo-1-(pyrrolidin-1-yl)propan-2-yl)-2,4-dioxo-1,2,3,4-tetrahydrothieno[2,3-d]pyrimidine-6-carboxylate] | 0.6 to 3 | 0.3 to 3 | 2 (≈ 3.19 µM) | 2 (≈ 3.19 µM) | 2 (≈ 3.19 µM) | 2 (≈ 3.19 µM) | 0.4 (≈ 0.637 µM) | 0.4 (≈ 0.637 µM) | ≥ 50 | ≥ 50 | ≥ 50 | ≥ 50 | 0.4 (≈ 0.637 µM) | 0.4 (≈ 0.637 µM) | 0.08 (≈ 0.127 µM) | 0.08 (≈ 0.127 µM) | 0.4 (≈ 0.637 µM) | 0.4 (≈ 0.637 µM)
CCOC(=O)c1sc2c(c1C)c(=O)n(C(C)(C)C(=O)NC(C)C)c(=O)n2C[C@H](OC[C@@H](C)C#N)c1cc(F)ccc1OC [Compound I-35, ethyl 1-((R)-2-((S)-2-cyanopropoxy)-2-(5-fluoro-2-methoxyphenyl)ethyl)-3-(1-(isopropylamino)-2-methyl-1-oxopropan-2-yl)-5-methyl-2,4-dioxo-1,2,3,4-tetrahydrothieno[2,3-d]pyrimidine-6-carboxylate] |  | 0.3 to 3 |  | 0.4 (≈ 0.649 µM) |  | 0.4 (≈ 0.649 µM) |  | 0.4 (≈ 0.649 µM) |  | ≥ 50 |  | 10 (≈ 16.2 µM) |  | 0.08 (≈ 0.13 µM) |  | 0.08 (≈ 0.13 µM) |  | 0.08 (≈ 0.13 µM)
CCOC(=O)c1sc2c(c1C)c(=O)n(C(C)(C)C(=O)N1CCCC1)c(=O)n2C[C@H](OCCC#N)c1cc(F)ccc1OC [Compound I-16, (R)-ethyl 1-(2-(2-cyanoethoxy)-2-(5-fluoro-2-methoxy-phenyl)ethyl)-5-methyl-3-(2-methyl-1-oxo-1-(pyrrolidin-1-yl)propan-2-yl)-2,4-dioxo-1,2,3,4-tetrahydrothieno[2,3-d]pyrimidine-6-carboxylate] | 0.6 to 3 | 0.3 to 3 | 2 (≈ 3.25 µM) | 2 (≈ 3.25 µM) | 2 (≈ 3.25 µM) | 2 (≈ 3.25 µM) | 2 (≈ 3.25 µM) | 2 (≈ 3.25 µM) | ≥ 50 | ≥ 50 | ≥ 50 | ≥ 50 | 0.4 (≈ 0.651 µM) | 0.4 (≈ 0.651 µM) | 0.08 (≈ 0.13 µM) | 0.08 (≈ 0.13 µM) | 2 (≈ 3.25 µM) | 2 (≈ 3.25 µM)
